Consider 22 compounds from patent US9527851B2, “Pyrrole six-membered heteroaryl ring derivative, preparation method thereof, and medicinal uses thereof” (Jiangsu Hengrui Medicine Co., Ltd., priority 2011, dated 2016).

The target of one data set is JAK2 kinase (Homo sapiens (Human), UniProt O60674). In words: Assay for inhibiting JAK2 kinase (in vitro kinase assay, HRP anti-phosphotyrosine antibody/TMB absorbance). It counts as biochemical. The note with it: 20 μM ATP, 50 minutes at room temperature; read-out: IC50 (JAK2/Bio). Here is the method:
In vitro activity of compounds of the present invention for inhibiting JAK2 kinase was determined by the following method.

The target in another data set is JAK1 kinase (Homo sapiens (Human), UniProt P23458). The data set can be described thus: Assay for inhibiting JAK1 kinase (in vitro kinase assay, HRP anti-phosphotyrosine antibody/TMB absorbance). Format: biochemical. The settings on record: 20 μM ATP, 50 minutes at room temperature; read-out: IC50 (JAK1/Bio). Here is the method: In vitro activity of compounds of the present invention for inhibiting JAK1 kinase was determined by the following method.
IC50 values of test compounds was calculated from the data of the test compounds in inhibiting the activity of JAK1 kinase at different concentrations.

The nature of data set [1]: Pharmacokinetics assay in rats, intragastric administration, plasma by LC/MS/MS. It counts as in vivo, Sprague-Dawley (SD) rats. The note with it: both sexes, Sprague-Dawley, rat, plasma, po, SD rats, 10 mg/kg. Here is the method: Rats were used as test animals. […] The pharmacokinetic behavior of the compounds of the present invention was studied and evaluated in rats.
56 Healthy adult Sprague-Dawley (SD) rats, half male and half female, purchased from SINO-BRITSH SIPPR/BK LAB.
The appropriate amount of test compounds were weighed and mixed with 1.0 mL of dimethyl sulfoxide to prepare a 1.0 mg/mL suspension.
After an overnight fast, SD rats were administered intragastrically at a dose of 10.0 mg/kg and an administration volume of 10 mL/kg.
The plasma samples were stored at −20° C. The rats were fed 2 hours after administration.
Content determination of the test compounds in rat plasma after intragastrically administering at different concentrations: 50 μL of rat plasmas taken at various time points after administration were mixed with 50 μL of internal standard solution and 100 μL of methanol and mixed for 3 minutes by a vortexer. The mixture was centrifuged for 10 minutes at 13,500 rpm. 10 μL of the supernatant was taken from the plasma sample and analyzed by LC-MS/MS.
Pharmacokinetic Parameters of the compounds of the present invention were shown as follows: […]

Sequence of JAK2 kinase (O60674 whole entry): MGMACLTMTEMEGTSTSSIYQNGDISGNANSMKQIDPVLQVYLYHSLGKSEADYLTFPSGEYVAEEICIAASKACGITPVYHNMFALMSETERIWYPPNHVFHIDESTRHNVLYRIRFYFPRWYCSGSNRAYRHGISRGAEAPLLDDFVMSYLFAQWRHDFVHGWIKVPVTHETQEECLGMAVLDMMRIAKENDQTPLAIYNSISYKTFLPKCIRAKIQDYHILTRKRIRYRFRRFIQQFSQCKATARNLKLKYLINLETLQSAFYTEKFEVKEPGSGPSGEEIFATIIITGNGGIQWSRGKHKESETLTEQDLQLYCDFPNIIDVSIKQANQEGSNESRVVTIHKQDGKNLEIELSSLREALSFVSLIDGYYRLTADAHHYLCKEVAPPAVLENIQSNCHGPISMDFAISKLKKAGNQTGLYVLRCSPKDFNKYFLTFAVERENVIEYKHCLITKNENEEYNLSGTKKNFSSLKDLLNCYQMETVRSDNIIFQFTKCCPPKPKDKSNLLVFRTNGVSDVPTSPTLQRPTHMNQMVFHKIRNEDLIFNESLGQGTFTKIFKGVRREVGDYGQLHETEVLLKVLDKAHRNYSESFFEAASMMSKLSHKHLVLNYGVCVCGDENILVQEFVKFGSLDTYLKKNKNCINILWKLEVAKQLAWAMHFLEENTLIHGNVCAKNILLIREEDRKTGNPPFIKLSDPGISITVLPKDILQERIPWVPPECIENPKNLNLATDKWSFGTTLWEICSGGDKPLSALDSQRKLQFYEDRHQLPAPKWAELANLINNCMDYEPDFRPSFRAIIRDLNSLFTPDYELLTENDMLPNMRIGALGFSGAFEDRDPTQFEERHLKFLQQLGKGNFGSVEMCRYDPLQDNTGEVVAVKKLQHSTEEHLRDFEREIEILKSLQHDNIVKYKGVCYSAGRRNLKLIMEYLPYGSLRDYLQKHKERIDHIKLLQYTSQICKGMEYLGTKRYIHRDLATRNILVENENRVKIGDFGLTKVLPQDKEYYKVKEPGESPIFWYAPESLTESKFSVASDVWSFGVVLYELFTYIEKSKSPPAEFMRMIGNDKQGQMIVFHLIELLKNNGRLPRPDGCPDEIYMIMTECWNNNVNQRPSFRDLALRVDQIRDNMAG
Sequence of JAK1 kinase (P23458 whole entry): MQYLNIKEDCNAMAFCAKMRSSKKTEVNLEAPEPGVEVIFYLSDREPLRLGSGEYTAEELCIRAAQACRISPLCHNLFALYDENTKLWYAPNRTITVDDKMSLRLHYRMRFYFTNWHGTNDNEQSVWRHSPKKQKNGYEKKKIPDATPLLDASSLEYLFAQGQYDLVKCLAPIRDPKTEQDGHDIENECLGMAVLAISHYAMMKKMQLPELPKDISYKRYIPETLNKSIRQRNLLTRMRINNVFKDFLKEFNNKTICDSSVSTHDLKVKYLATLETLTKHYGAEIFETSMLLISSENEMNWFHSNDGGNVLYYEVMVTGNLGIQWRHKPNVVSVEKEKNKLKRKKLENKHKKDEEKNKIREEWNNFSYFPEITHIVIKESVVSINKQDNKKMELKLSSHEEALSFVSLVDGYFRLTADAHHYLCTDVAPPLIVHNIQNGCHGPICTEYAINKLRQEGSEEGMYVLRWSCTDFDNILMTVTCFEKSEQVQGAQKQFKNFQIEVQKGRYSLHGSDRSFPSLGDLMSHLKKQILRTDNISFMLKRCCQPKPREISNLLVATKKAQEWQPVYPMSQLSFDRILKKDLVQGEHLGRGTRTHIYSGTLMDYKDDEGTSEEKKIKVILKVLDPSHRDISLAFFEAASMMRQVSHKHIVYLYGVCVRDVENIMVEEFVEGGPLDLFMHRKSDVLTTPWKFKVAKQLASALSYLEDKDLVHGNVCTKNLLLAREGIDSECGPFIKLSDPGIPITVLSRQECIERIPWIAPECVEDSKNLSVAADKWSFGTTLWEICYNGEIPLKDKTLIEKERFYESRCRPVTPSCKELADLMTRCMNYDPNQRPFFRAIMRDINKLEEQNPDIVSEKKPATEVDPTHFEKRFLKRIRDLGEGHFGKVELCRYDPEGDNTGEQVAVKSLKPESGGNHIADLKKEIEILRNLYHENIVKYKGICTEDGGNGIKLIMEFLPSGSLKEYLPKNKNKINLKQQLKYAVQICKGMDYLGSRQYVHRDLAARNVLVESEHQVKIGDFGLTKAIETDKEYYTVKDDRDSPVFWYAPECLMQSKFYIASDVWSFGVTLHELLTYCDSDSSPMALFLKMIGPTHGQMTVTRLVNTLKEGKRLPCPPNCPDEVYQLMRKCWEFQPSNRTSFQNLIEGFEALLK

With `Cc1nsc(N2C[C@H]3C[C@H](N(C)c4ncnc5[nH]ccc45)C[C@H]3C2)n1` [Example 65, N-methyl-N-((3aR,5S,6aS)-2-(3-methyl-1,2,4-thiadiazol-5-yl)octahydrocyclopenta[c]pyrrol-5-yl)-7H-pyrrolo[2,3-d]pyrimidin-4-amine], at JAK2 kinase, the IC50 came to 179 nM.

For the compound `COC(=O)CN1C[C@H]2C[C@H](N(C)c3ncnc4[nH]ccc34)C[C@H]2C1` [Example 24, methyl 2-((3aR,5S,6aS)-5-(methyl(7H-pyrrolo[2,3-d]pyrimidin-4-yl)amino)hexahydrocyclopenta[c]pyrrol-2(1H)-yl)acetate], the IC50 at JAK1 kinase came to 13 nM; at JAK2 kinase it was 77 nM.

As usually defined, the AUC is concentration integrated over time. For orientation: half-life means the time in which the quantity being followed falls by half. By Cmax is commonly meant the highest concentration seen after dosing. Turning to `C[C@H](O)C(=O)N1C[C@H]2C[C@H](N(C)c3ncnc4[nH]ccc34)C[C@H]2C1` [Example 17, (S)-2-Hydroxy-1-((3aR,5R,6aS)-5-(methyl(7H-pyrrolo[2,3-d]pyrimidin-4-yl)amino)hexahydrocyclopenta[c]pyrrol-2(1H)-yl)propan-1-one], the IC50 at JAK1 kinase stood at 0.2 nM. Also, the Vd/F in data set [1] (read-out: Apparent Distribution Volume Vz/F) amounted to 6.2 ± 1.69 L/kg. The AUC in data set [1] (read-out: Area Under Curve AUC) came out at 4760 ± 1680 ng·h/mL. In data set [1] (read-out: Clearance CL/F), the CL/F came to 38.7 ± 13.7 mL/min/kg. For the same compound, the half-life in data set [1] (read-out: Half-Life t½ (converted)) was 2.03 ± 0.82 h. For the same compound, the Cmax in data set [1] (read-out: Plasma Conc. Cmax) was determined as 1480 ± 177 ng/mL.

On to `CN(c1ncnc2[nH]ccc12)[C@@H]1C[C@@H]2CN(CCC#N)C[C@@H]2C1` [Example 68, 3-((3aR,5R,6aS)-5-(methyl(7H-pyrrolo[2,3-d]pyrimidin-4-yl)amino)hexahydrocyclopenta[c]pyrrol-2(1H)-yl)propanenitrile], for which the figures for the IC50 on JAK1 kinase and at JAK2 kinase were 17 nM and 18 nM, respectively.

For `CN(c1ncnc2[nH]ccc12)[C@@H]1C[C@@H]2CN(C(=O)CCC#N)C[C@@H]2C1` [Example 75, 4-((3aR,5R,6aS)-5-(methyl(7H-pyrrolo[2,3-d]pyrimidin-4-yl)amino)hexahydrocyclopenta[c]pyrrol-2(1H)-yl)-4-oxobutanenitrile], the IC50 at JAK1 kinase was determined as 46 nM; on JAK2 kinase, 156 nM.

With `COc1nsc(NC(=O)N2C[C@H]3C[C@H](N(C)c4ccnc5[nH]ccc45)C[C@H]3C2)n1` [Example 113, (3aR,5S,6aS)-N-(3-methoxy-1,2,4-thiadiazol-5-yl)-5-(methyl(1H-pyrrolo[2,3-b]pyridin-4-yl)amino)hexahydrocyclopenta[c]pyrrole-2(1H)-carboxamide], the IC50 at JAK1 kinase came out at 23 nM; on JAK2 kinase, 178 nM.

As to `COC(=O)CN1C[C@@H]2[C@H](C1)[C@H]2CN(C)c1ncnc2[nH]ccc12` [Example 134, methyl 2-((1R,5S,6R)-6-((methyl(7H-pyrrolo[2,3-d]pyrimidin-4-yl)amino)methyl)-3-azabicyclo[3.1.0]hexan-3-yl)acetate], on JAK2 kinase, the IC50 was 60 nM.

`Cc1noc(N2C[C@H]3C[C@H](N(C)c4ncnc5[nH]ccc45)C[C@H]3C2)n1` [Example 61, N-methyl-N-((3aR,5S,6aS)-2-(3-methyl-1,2,4-oxadiazol-5-yl)octahydrocyclopenta[c]pyrrol-5-yl)-7H-pyrrolo[2,3-d]pyrimidin-4-amine]: the IC50 at JAK1 kinase was found to be 128 nM; at JAK2 kinase, 25 nM.

Take `CN(c1ncnc2[nH]ccc12)C1C[C@@H]2CCN(C(=O)CO)C[C@@H]2C1` (stereo partly drawn) [Example 37, 2-Hydroxy-1-((4aS,7aR)-6-(methyl(7H-pyrrolo[2,3-d]pyrimidin-4-yl)amino)hexahydro-1H-cyclopenta[c]pyridin-2(3H,4H,4aH,5H,6H,7H,7aH)-yl)ethanone]: the IC50 at JAK1 kinase was found to be 50 nM; on JAK2 kinase it was 72 nM.

Take `CN(c1ncnc2[nH]ccc12)[C@H]1C[C@@H]2CN(C(=O)[C@H](O)CO)C[C@@H]2C1` [Example 92, (R)-2,3-dihydroxy-1-((3aR,5S,6aS)-5-(methyl(7H-pyrrolo[2,3-d]pyrimidin-4-yl)amino)hexahydrocyclopenta[c]pyrrol-2(1H)-yl)propan-1-one]: the IC50 is 131 nM on JAK1 kinase and 203 nM at JAK2 kinase.

Take `Cc1cnc(NC(=O)N2C[C@H]3C[C@H](N(C)c4ncnc5[nH]ccc45)C[C@H]3C2)s1` [Example 117, (3aR,5S,6aS)-5-(methyl(7H-pyrrolo[2,3-d]pyrimidin-4-yl)amino)-N-(5-methylthiazol-2-yl)hexahydrocyclopenta[c]pyrrole-2(1H)-carboxamide]: the IC50 on JAK1 kinase stood at 95 nM.

For the compound `CC(=O)N1C[C@H]2C[C@H](N(C)c3ncnc4[nH]ccc34)C[C@H]2C1` [Example 11, 1-((3aR,5S,6aS)-5-(Methyl(7H-pyrrolo[2,3-d]pyrimidin-4-yl)amino)hexahydrocyclopenta[c]pyrrol-2(1H)-yl)ethanone], on JAK1 kinase, the IC50 is 33 nM.

Consider `COc1nnc(NC(=O)N2C[C@H]3C[C@H](N(C)c4ncnc5[nH]ccc45)C[C@H]3C2)s1` [Example 155, (3aR,5S,6aS)-N-(5-methoxy-1,3,4-thiadiazol-2-yl)-5-(methyl(7H-pyrrolo[2,3-d]pyrimidin-4-yl)amino)hexahydrocyclopenta[c]pyrrole-2(1H)-carboxamide], for which the IC50 was 4 nM on JAK1 kinase and 41 nM at JAK2 kinase.

With `CN(c1ncnc2[nH]ccc12)[C@H]1C[C@@H]2CN(C(=O)OC(C)(C)C)C[C@@H]2C1` [Example 5, (3aR,5S,6aS)-tert-butyl 5-(methyl(7H-pyrrolo[2,3-d]pyrimidin-4-yl)amino)hexahydro cyclopenta[c]pyrrole-2(1H)-carboxylate], the IC50 at JAK1 kinase was 30 nM.

Consider `COc1nsc(NC(=O)N2CC[C@H]3CC(N(C)c4ncnc5[nH]ccc45)C[C@H]3C2)n1` (stereo partly drawn) [Example 38, (4aS,7aR)—N-(3-Methoxy-1,2,4-thiadiazol-5-yl)-6-(methyl(7H-pyrrolo[2,3-d]pyrimidin-4-yl)amino)hexahydro-1H-cyclopenta[c]pyridine-2(3H)-carboxamide], for which, on JAK2 kinase, the IC50 is 7 nM.

On to `COc1cncc(NC(=O)N2C[C@H]3C[C@H](N(C)c4ncnc5[nH]ccc45)C[C@H]3C2)c1` [Example 109, (3aR,5S,6aS)-N-(5-methoxypyridin-3-yl)-5-(methyl(7H-pyrrolo[2,3-d]pyrimidin-4-yl)amino)hexahydrocyclopenta[c]pyrrole-2(1H)-carboxamide], for which the IC50 on JAK1 kinase amounted to 15 nM.

As for `CN(C[C@H]1[C@@H]2CN(C(=O)C3CC3)C[C@@H]21)c1ncnc2[nH]ccc12` [Example 135, cyclopropyl((1R,5S,6S)-6-((methyl(7H-pyrrolo[2,3-d]pyrimidin-4-yl)amino)methyl)-3-azabicyclo[3.1.0]hexan-3-yl)methanone], the IC50 on JAK2 kinase worked out at 2 nM.

Turning to `CN(c1ncnc2[nH]ccc12)[C@H]1C[C@@H]2CN(C(=O)Nc3nncs3)C[C@@H]2C1` [Example 86, (3aR,5S,6aS)-5-(methyl(7H-pyrrolo[2,3-d]pyrimidin-4-yl)amino)-N-(1,3,4-thiadiazol-2-yl)hexahydrocyclopenta[c]pyrrole-2(1H)-carboxamide], the IC50 at JAK1 kinase is 10 nM; at JAK2 kinase it was 52 nM.

In the case of `CN(c1ncnc2[nH]ccc12)[C@H]1C[C@@H]2CN(CCC#N)C[C@@H]2C1` [Example 27, 3-((3aR,5S,6aS)-5-(Methyl(7H-pyrrolo[2,3-d]pyrimidin-4-yl)amino)hexahydrocyclopenta[c]pyrrol-2(1H)-yl)propanenitrile], at JAK1 kinase, the IC50 was found to be 30 nM.

In the case of `CN(c1ncnc2[nH]ccc12)C1C[C@@H]2CCN(C(=O)CC#N)C[C@@H]2C1` (stereo partly drawn) [Example 39, 3-((4aS,7aR)-6-(Methyl(7H-pyrrolo[2,3-d]pyrimidin-4-yl)amino)hexahydro-1H-cyclopenta[c]pyridin-2(3H,4H,4aH,5H,6H,7H,7aH)-yl)-3-oxopropanenitrile], the IC50 at JAK1 kinase turned out to be 34 nM; at JAK2 kinase, 113 nM.

As for `COCC(=O)N1C[C@H]2C[C@H](N(C)c3ncnc4[nH]ccc34)C[C@H]2C1` [Example 18, 2-Methoxy-1-((3aR,5S,6aS)-5-(methyl(7H-pyrrolo[2,3-d]pyrimidin-4-yl)amino)hexahydrocyclopenta[c]pyrrol-2(1H)-yl)ethanone], on JAK1 kinase, the IC50 was determined as 49 nM.

Take `CNC(=O)N1C[C@H]2C[C@H](N(C)c3ncnc4[nH]ccc34)C[C@H]2C1` [Example 80, (3aR,5S,6aS)-N-methyl-5-(methyl(7H-pyrrolo[2,3-d]pyrimidin-4-yl)amino)hexahydrocyclopenta[c]pyrrole-2(1H)-carboxamide]: at JAK1 kinase, the IC50 came out at 127 nM.
